These results are taken from patent publication US20160362408A1 (Bayer Pharma Aktiengesellschaft, priority 2013, published 2016).

Counter-ions that a name gives are not always drawn.

The target of the assay is T1, recombinant guanylate cyclase reporter cell line (Rattus norvegicus, UniProt P19686+P20595).
T1 construct: expressed in transfected cells
T1 sequence (P19686 1-690): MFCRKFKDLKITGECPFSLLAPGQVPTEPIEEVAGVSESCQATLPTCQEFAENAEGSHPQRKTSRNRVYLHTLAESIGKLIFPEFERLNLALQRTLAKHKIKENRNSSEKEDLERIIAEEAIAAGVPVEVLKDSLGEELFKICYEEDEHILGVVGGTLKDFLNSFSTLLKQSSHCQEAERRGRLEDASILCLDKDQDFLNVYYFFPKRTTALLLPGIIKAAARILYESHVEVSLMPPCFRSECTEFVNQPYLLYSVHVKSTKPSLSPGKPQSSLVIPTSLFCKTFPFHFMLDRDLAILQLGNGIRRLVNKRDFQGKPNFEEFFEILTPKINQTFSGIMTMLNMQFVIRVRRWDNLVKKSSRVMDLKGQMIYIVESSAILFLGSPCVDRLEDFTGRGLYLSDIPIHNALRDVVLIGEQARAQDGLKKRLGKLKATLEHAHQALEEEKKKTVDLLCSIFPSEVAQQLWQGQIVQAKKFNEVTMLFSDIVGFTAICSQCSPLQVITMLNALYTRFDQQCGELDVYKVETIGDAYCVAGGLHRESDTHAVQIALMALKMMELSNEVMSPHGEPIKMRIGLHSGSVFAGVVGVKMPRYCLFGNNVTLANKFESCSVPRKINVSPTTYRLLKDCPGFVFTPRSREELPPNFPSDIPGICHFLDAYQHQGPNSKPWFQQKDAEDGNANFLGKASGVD
T1 sequence (P20595 1-619): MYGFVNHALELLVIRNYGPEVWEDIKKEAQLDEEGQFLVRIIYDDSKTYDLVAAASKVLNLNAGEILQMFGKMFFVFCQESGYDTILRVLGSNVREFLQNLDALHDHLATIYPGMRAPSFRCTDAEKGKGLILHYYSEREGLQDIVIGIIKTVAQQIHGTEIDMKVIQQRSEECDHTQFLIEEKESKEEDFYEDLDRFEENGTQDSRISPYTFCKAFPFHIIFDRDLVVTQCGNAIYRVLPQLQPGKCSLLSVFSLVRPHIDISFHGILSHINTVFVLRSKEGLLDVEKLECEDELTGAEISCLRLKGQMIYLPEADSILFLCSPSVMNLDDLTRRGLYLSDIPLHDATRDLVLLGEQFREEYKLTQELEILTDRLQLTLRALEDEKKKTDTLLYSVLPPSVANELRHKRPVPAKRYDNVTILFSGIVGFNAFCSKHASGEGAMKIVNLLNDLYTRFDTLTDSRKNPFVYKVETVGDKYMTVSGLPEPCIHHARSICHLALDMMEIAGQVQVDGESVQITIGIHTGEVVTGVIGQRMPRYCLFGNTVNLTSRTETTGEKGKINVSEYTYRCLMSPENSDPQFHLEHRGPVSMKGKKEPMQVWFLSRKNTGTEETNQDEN
In words: Effect on a recombinant guanylate cyclase reporter cell line. The format is cell-based. The settings on record: MEC = minimum effective concentration; in some cases mean values for individual determinations. The protocol: B-2. Effect on a Recombinant Guanylate Cyclase Reporter Cell Line
The cellular action of the compounds of the invention is determined using a recombinant guanylate cyclase reporter cell line, as described in F. Wunder et al., Anal. Biochem. 339, 104-112 (2005).
Representative MEC values (MEC=minimum effective concentration) for the compounds of the invention are shown in the table below (in some cases as mean values for individual determinations): […]
Consider `Cc1cc(OCc2c(F)cccc2F)c2nc(C)c(C(=O)Nc3cnn(CCO)c3)n2c1` [Example 86], for which the MEC worked out at 0.3 µM.
The same measure for `Cc1nc2c(OCc3c(F)cccc3F)cccn2c1C(=O)Nc1n[nH]c2ccc(C(F)(F)F)cc12` [Example 114, 8-[(2,6-Difluorobenzyl)oxy]-2-methyl-N-[5-(trifluoromethyl)-1H-indazol-3-yl]imidazo[1,2-a]pyridine-3-carboxamide]: 0.3 µM.
In the case of `Cc1nc2c(OCc3c(F)cccc3F)cccn2c1C(=O)Nc1ccnc2c(F)cccc12` [Example 78], the MEC amounted to 1.0 µM.
For the molecule `Cc1n[nH]c(C)c1NC(=O)c1c(C)nc2c(OCC3CCCCC3)cccn12` [Example 49, 8-(cyclohexylmethoxy)-N-(3,5-dimethyl-1H-pyrazol-4-yl)-2-methylimidazo[1,2-a]pyridine-3-carboxamide], the MEC was found to be 0.1 µM.
With “8-[(2,6-difluorobenzyl)oxy]-N-[1-(2- hydroxyethyl)-5-methyl-3-(trifluoromethyl)-1H- pyrazol-4-yl]-2,6-dimethylimidazo[1,2-a]pyridine- 3-carboxamide [Example 118]” the figure was 0.1 µM.
Consider `Cc1nc2c(OCc3c(F)cccc3F)cccn2c1C(=O)Nc1cccc2ccc(O)cc12` [Example 74], for which the MEC came out at 1.0 µM.
The same measure for `Cc1cccc(NC(=O)c2c(C)nc3c(OCc4c(F)cccc4F)cccn23)n1` [Example 5]: 0.3 µM; for `Cc1ccc2ccccc2c1NC(=O)c1c(C)nc2c(OCc3c(F)cccc3F)cccn12` [Example 66]: 0.1 µM.
The same measure for `Cc1cc(OCc2c(F)cccc2F)c2nc(C)c(C(=O)Nc3c(C)n[nH]c3C)n2c1` [Example 52, 8-[(2,6-difluorobenzyl)oxy]-N-(3,5-dimethyl-1H-pyrazol-4-yl)-2,6-dimethylimidazo[1,2-a]pyridine-3-carboxamide]: 0.65 µM; for `Cc1n[nH]c(C)c1NC(=O)c1c(C)nc2c(OCc3c(F)cccc3F)cc(Cl)cn12` [Example 41, 6-chloro-8-[(2,6-difluorobenzyl)oxy]-N-(3,5-dimethyl-1H-pyrazol-4-yl)-2-methylimidazo[1,2-a]pyridine-3-carboxamide]: 0.1 µM; for `Cc1nc2c(OCc3c(F)cccc3F)cccn2c1C(=O)Nc1ccnn1C(C)C` [Example 21]: 1.0 µM.
The same measure for `Cc1nc2c(OCc3c(F)cccc3F)cccn2c1C(=O)Nc1ccc(Cl)c2ccccc12` [Example 62]: 1.0 µM; for `O=C(Nc1cnn(CCO)c1)c1c(C2CC2)nc2c(OCc3c(F)cccc3F)cccn12` [Example 142, 2-Cyclopropyl-8-[(2,6-difluorobenzyl)oxy]-N-[1-(2-hydroxyethyl)-1H-pyrazol-4-yl]imidazo[1,2-a]pyridine-3-carboxamide]: 10 µM; for `Cc1n[nH]c(C)c1NC(=O)c1c(C)nc2c(OCc3c(F)cccc3F)cc(N3CCOCC3)cn12` [Example 51, 8-[(2,6-difluorobenzyl)oxy]-N-(3,5-dimethyl-1H-pyrazol-4-yl)-2-methyl-6-(morpholin-4-yl)imidazo[1,2-a]pyridine-3-carboxamide]: 1.0 µM.
On to `Cc1nc2c(OCc3c(F)cccc3F)cccn2c1C(=O)Nc1ccncc1C(F)(F)F` [Example 123, 8-[(2,6-difluorobenzyl)oxy]-2-methyl-N-[3-(trifluoromethyl)pyridin-4-yl)imidazo[1,2-a]pyridine-3-carboxamide trifluoroacetate], for which the MEC was found to be 1.0 µM.
With `Cc1nc2c(OCc3c(F)cccc3F)cccn2c1C(=O)Nc1cnn(C)c1` [Example 119, 8-[(2,6-difluorobenzyl)oxy]-2-methyl-N-(1-methyl-1H-pyrazol-4-yl)imidazo[1,2-a]pyridine-3-carboxamide] the figure was 1.0 µM; with `Cc1nc2c(OCc3c(F)cccc3F)cccn2c1C(=O)Nc1c(C(F)(F)F)n[nH]c1C` [Example 76, 8-[(2,6-Difluorobenzyl)oxy]-2-methyl-N-[5-methyl-3-(trifluoromethyl)-1H-pyrazol-4-yl]imidazo[1,2-a]pyridine-3-carboxamide], 0.1 µM; with `Cc1cc(OCc2c(F)cccc2F)c2nc(C)c(C(=O)Nc3cccc(S(C)(=O)=O)c3)n2c1` [Example 152, 8-[(2,6-Difluorobenzyl)oxy]-2,6-dimethyl-N-[3-(methylsulphonyl)phenyl]imidazo[1,2-a]pyridine-3-carboxamide], 1.0 µM.
Take `Cc1nc2c(OCc3c(F)cccc3F)cccn2c1C(=O)Nc1cc[nH]n1` [Example 19]: the MEC worked out at 3.0 µM.
With `Cc1cc(OCc2c(F)cccc2F)c2nc(C)c(C(=O)Nc3cccc(NS(C)(=O)=O)c3)n2c1` [Example 153, 8-[(2,6-Difluorobenzyl)oxy]-2,6-dimethyl-N-{3-[(methylsulphonyl)amino]phenyl}imidazo[1,2-a]pyridine-3-carboxamide] the figure was 3.0 µM; with `Cc1cc(OCc2c(F)cccc2F)c2nc(C)c(C(=O)Nc3c(C(F)(F)F)n[nH]c3C)n2c1` [Example 94], 0.1 µM; with `CCn1ccc(NC(=O)c2c(C)nc3c(OCc4c(F)cccc4F)cccn23)n1` [Example 121, 8-[(2,6-difluorobenzyl)oxy]-N-(1-ethyl-1H-pyrazol-3-yl)-2-methylimidazo[1,2-a] pyridine-3-carboxamide], 1.0 µM.
In the case of `Cc1nc2c(OCc3c(F)cccc3F)cc(Cl)cn2c1C(=O)Nc1cn[nH]c1C` [Example 47, 6-chloro-8-[(2,6-difluorobenzyl)oxy]-2-methyl-N-(5-methyl-1H-pyrazol-4-yl)imidazo[1,2-a]pyridine-3-carboxamide + 6-chloro-8-[(2,6-difluorobenzyl)oxy]-2-methyl-N-(3-methyl-1H-pyrazol-4-yl)imidazo[1,2-a]pyridine-3-carboxamide], the MEC worked out at 0.3 µM.
With `Cc1nn(CCO)c(C)c1NC(=O)c1c(C)nc2c(OCc3c(F)cccc3F)cccn12` [Example 37, 8-[(2,6-difluorobenzyl)oxy]-N-[1-(2-hydroxyethyl)-3,5-dimethyl-1H-pyrazol-4-yl]-2-methylimidazo[1,2-a]pyridine-3-carboxamide] the figure was 0.3 µM; with `Cc1nc2c(OCc3c(F)cccc3F)cccn2c1C(=O)Nc1cnn(CCN2CCS(=O)(=O)CC2)c1` [Example 129, 8-[(2,6-difluorobenzyl)oxy]-N-{1-[2-(1,1-dioxidothiomorpholin-4-yl)ethyl]-1H-pyrazol-4-yl}-2-methylimidazo[1,2-a] pyridine-3-carboxamide], 10 µM.
The same measure for `Cc1nc2c(OCC3CCCCC3)cccn2c1C(=O)Nc1cnn(CCO)c1` [Example 124, 8-(cyclohexylmethoxy)-N-[1-(2-hydroxyethyl)-1H-pyrazol-4-yl]-2-methylimidazo[1,2-a]pyridine-3-carboxamide]: 1.0 µM; for `Cc1nc2c(OCc3c(F)cccc3F)cccn2c1C(=O)Nc1cccc2cc(Cl)ccc12` [Example 61]: 0.3 µM; for `Cc1nc2c(OCc3c(F)cccc3F)cccn2c1C(=O)Nc1cccc2ncccc12` [Example 68]: 0.3 µM.
Turning to `Cc1nc2c(OCc3c(F)cccc3F)cccn2c1C(=O)Nc1nccc2ccccc12` [Example 59, 8-[(2,6-difluorobenzyl)oxy]-N-(isoquinolin-1-yl)-2-methylimidazo[1,2-a]pyridin-3-carboxamide trifluoroacetate], the MEC came out at 1.0 µM.
The same measure for `Cc1cc2c(NC(=O)c3c(C)nc4c(OCc5c(F)cccc5F)cccn34)cccc2nn1` [Example 70]: 0.3 µM; for `Cc1noc(C)c1NC(=O)c1c(C)nc2c(OCc3c(F)cccc3F)cccn12` [Example 23, 8-[(2,6-difluorobenzyl)oxy]-N-(3,5-dimethyl-1,2-oxazol-4-yl)-2-methylimidazo[1,2-a]pyridine-3-carboxamide]: 0.65 µM.
The same measure for `Cc1nc2c(OCc3c(F)cccc3F)cccn2c1C(=O)Nc1cccc2cnccc12` [Example 67]: 0.3 µM.
